Columns and labels:
PBCEC [1] = format: cell-based, porcine; details: levels higher than 100 µM; data not shown
Method: In order to study the barrier integrity PBCEC were incubated with 1 µM OTA, OTα, CIT and DHCIT in the apical compartment (blood side) of Transwell® filter inserts for 48 h. The TEER values as well as the electrical capacitance (cCL) were monitored by cellular impedance spectroscopy (Figure 4A,B). As a negative control the permeability of […] was measured after 48 h. Sucrose is not transported by any cellular transport protein and represents a marker for an intact BBB.
For barrier integrity, TEER values were monitored using a cellZscope® cellular impedance spectrometer (nanoAnalytics, Münster, Germany). […]. The detailed protocols can be found in the Supplementary Materials. […]
6.1. Cellular impedance spectroscopy
To monitor the barrier integrity during all transfer studies, the transendothelial electrical resistance (TEER) was measured with a cellZscope® cellular impedance spectrometer (nanoAnalytics, Münster, Germany) using a module suitable for 24 Transwell® filter inserts. After the mycotoxins were added to the cell culture medium, TEER was analyzed until the end of the experiment (48 h). The waiting time after each run was set to 10 min, resulting in 60 scans per 48 h.
The results were normalized to the TEER values of the first impedance spectrum of each well. Data processing was performed using the cellZscope 1.3.4 software (nanoAnalytics, Münster, Germany).

PBCEC [2] = details: 10 µM

Structure (SMILES)	effect on PBCEC barrier integrity (PBCEC [1])	cellular viability (dehydrogenase activity) compared to the negative control (PBCEC [2]) [%]
CCCN(CCC)S(=O)(=O)c1ccc(C(=O)O)cc1 [probenecid, 4-(N,N-dipropylaminosulfonyl)benzoic acid, reference compound]	impaired the PBCEC barrier integrity	
CC(=O)OC[C@]12C[C@H](OC(=O)CC(C)C)C(C)=C[C@H]1O[C@@H]1[C@H](O)[C@@H](OC(C)=O)[C@@]2(C)[C@]12CO2 [T-2 toxin, reference compound]		2 ± 1

From article PMC8147254, “Efflux at the Blood-Brain Barrier Reduces the Cerebral Exposure to Ochratoxin A, Ochratoxin α, Citrinin and Dihydrocitrinone” (Toxins, 2021)
